From US12102685B2, “Immodulator peptides covalently modified with small molecules” (priority 2020, dated 2024)
Marks after values point to notes of the source that are not given here. Peptide text beside a SMILES is read from it.

Experiments:
[1] = Strength of binding to iron, plate assay (x2E b); settings: 1 ug/well peptide complexed to Alexa-488-streptavidin; ferric iron
Experimental: Immodulator peptides were extended C-terminally by three amino acids, to include a valine residue that is highly conserved in the “thyroglobulin type 1 motif”. The reasoning behind this attempt is that a longer conserved sequence might lead to a tighter fold overall, which might in turn result in increased metal-binding avidity. • (b) Strength of binding to iron was evaluated by plate assay.
(§1) Experiments were conducted by the procedure described above. Ferric iron-charged NTA-coated 96-well plates were used as described. 1 ug/well immodulator peptide complexed to Alexa-488-labeled streptavidin in PBS buffer was added (60 min at room temperature). The plate was washed and counted in a standard fluorometer (excitation/emission: 485/525 nm). The results (fluorescence) show improved iron-binding by the three peptides extended C-terminally by the AVD, (dA)VD, and FVS tripeptides. **p<0.01 vs IM3 control IM3: 200±29; IM4: 45±37**; IM5: 130±77; IM3AVD: 434±29**; IM3dAVD: 418±28**; IM3FVS: 371±33** • (c) Competition assay. The same procedure was used as the preceding experiment, except that 375 ng/well labeled IM3 peptide was used, plus 10× of the indicated unlabeled peptide. ‘No competing peptide’ control value was set to 100. *p<0.05 vs “no peptide” control Competing Peptide/Fluorescence • None: 100±38; IM4: 125±26; IM3: 63±27*; IM5: 40±14*; IM3AVD: 10±28* • (d) Competition assay. The same procedure was used as the preceding experiment, except that labeled IM3AVD peptide was used. **p<0.01 vs “no competing peptide” control • None: 100±9; IM4: 144±44; IM3: 35±16**; IM5: 30±19**; IM3AVD: 9±19** • (e) The same procedure was used as the preceding experiment, except that each peptide was labeled with Alexa-488-labeled streptavidin in PBS buffer and used separately. Binding to IM3 was set to =100. *p<0.05, **p<0.01 vs IM3 control. (Labeled Peptide/Fluorescence) IM1: 1.8±0.4**; IM2: 3.0±1.8**; IM3: 100.0±16.8; IM4: 7.2±1.7*; IM5: 86.7±6.4; IM6: 85.9±14.9; IM3AVD:137.7±11.8*; IM3dAVD:147.4±22.9*; IM3FVS: 101.5±10.5.

[2] = Alexa488-SA-labelled IM1-IM6 binding to metal-charged NTA-coated plate (x2B d); settings: no peptide background = 1.0
Experimental: NTA-metal-affinity fluorescence assay was performed using 96-well NTA-metal-coated plates readily available from commercial sources such as Qiagen (Germantown, MD). NTA was charged with ferrous or ferric iron, zinc, copper, calcium, vanadium, ruthenium, cobalt, titanium, manganese or other metals. 400 ng of FITC-labeled immodulator peptide (or biotinylated immodulator peptide complexed to Alexa-488-labeled streptavidin) in PBS buffer was added per plate. After incubation at room temperature for 60 minutes, excess peptide was washed off and peptide was detected by measuring fluorescence (excitation 490 nm, emmission 525 nm) in a fluorometer. • (a) Using FITC-labeled IM3 peptide (1 ug/well) in the fluorescent binding assay: • EDTA-treated control: 2,251±1,186 • Ferrous iron: 170,441±11,264 (p<0.001)* • Copper: 13,644±5566 (p<0.05)* • Calcium: 48,822±11,990 (p<0.01)* • *p values are relative to EDTA-treated control • (b) Competition binding assay to ferrous iron, calcium, copper and zinc-charged NTA-coated plates using FITC-labeled IM3 peptide (0.5 uM) and 8× (4 uM) unlabelled competitor peptides IM3N1, IM3N2 (*all comparisons to PBS control are p<0.01); # fluorescent value of binding to […] was set at 100.
Ferrous iron # (100±2.6*); Control (no metal): 6.4±3.1; Ferric iron: 94.1±6.6*; Calcium: 47.6±3.7*; Vanadium: 53.9±5.5*; Manganese: 54.4±11.2*; Cobalt: 25.4±2.3*; Copper: 58.4±6.4*; Zinc: 71.4±8.3*; Ruthenium: 67.8±8.3*; (d) Alexa488-SA-labelled immodulator peptide IM1, IM2, IM3, IM4, IM5, IM6 (400 ng/well) were bound to NTA-coated plate charged with the indicated metals: # background (no peptide) control set to 1.0;*p<0.05, **p<0.01 vs “no peptide”

[3] = Iron-binding competition assay with labeled IM3 (x2E c); settings: 375 ng/well labeled IM3 plus 10x unlabeled peptide; no competing peptide = 100
Experimental: as §1

[4] = Binding to Echelon PPI Arrays (x9B); set-up: key: 0=no binding; 1=low binding; 2=medium binding; 3=high binding; settings: 100 pmol PPI spot, colorimetric readout
Text: Binding of immodulator peptides to Echelon PPI Arrays. PPI arrays were purchased from Echelon Biosciences (Sal Lake City, UT) and used according to the manufacturer's recommendations. Colorimetric readout from each 100 pmol PPI spot in the array is expressed as 0=no binding, 1=low binding, 2=medium binding and 3=high binding. […] In addition, IM3 and IM5 show slight binding to PI(3,4,5)P3.

[5] = Binding to heparin-agarose spin column (x3D); settings: 1 ug SA488-labelled peptide
Experimental: 1 ug Streptavidin-Alexa 488 conjugate (SA488)-labelled IM peptide in PBS buffer was loaded on a spin column packed with 0.2 ml bed volume heparin-agarose (G-Biosciences, St. Louis, MO). The column was centrifuged for 2 min at 2,000 G and the flow-through was collected. The column was then washed with 0.3 ml 1% BSA in PBS buffer and the column spin repeated. Flowthrough and wash were pooled and duplicate 20 uL aliquots counted in a standard fluorometer (excitation/emission 485/525 nm). Results are expressed as percentage of input counts that bound the heparin-agarose column, versus flowthrough. Percent counts bound to heparin-agarose resin are shown below. IM3, IM5 and IM6 peptides bind heparin-agarose in this assay.

[6] = Iron binding of separately labeled peptides (x2E e); settings: each peptide labeled separately; IM3 = 100; ferric iron
Experimental: as §1

Row | Structure (SMILES) | fluorescence (iron binding) [1] | fluorescence ([2]; Calcium) | fluorescence ([2]; Copper) | fluorescence ([2]; Ferrous iron, 400 ng/well) | fluorescence ([2]; Zinc) | fluorescence of labeled IM3 with competing peptide [3] | binding to PI spot [4] | binding to PI(3,4,5)P3 spot [4] | binding to PI(4)P1 spot [4] | binding to PI(4,5)P2 spot [4] | Percent Flowthrough [5] | Percent retained [5] | fluorescence of labeled peptide [6]
1 | CC(C)C[C@H](NC(=O)[C@H](C)NC(=O)[C@@H]1CCCN1C(=O)[C@H](Cc1c[nH]cn1)NC(=O)[C@H](CS)NC(=O)[C@H](CCC(N)=O)NC(=O)[C@H](CCCCN)NC(=O)[C@@H]1CCCN1C(=O)[C@H](Cc1c[nH]cn1)NC(=O)[C@H](Cc1ccccc1)NC(=O)[C@H](CC(N)=O)NC(=O)CNC(=O)[C@H](CC(N)=O)NC(=O)[C@@H](N)CCCNC(=N)N)C(=O)N[C@@H](CC(=O)O)C(=O)NCC(=O)N[C@@H](CCC(N)=O)C(=O)N[C@@H](CCCNC(=N)N)C(=O)NCC(=O)N[C@@H](CCCCN)C(=O)N[C@@H](CS)C(=O)N[C@@H](Cc1c[nH]c2ccccc12)C(=O)O [IM4] (H-RNGNFHPKQCHPALDGQRGKCW-OH; N-terminus and C-terminus assumed) | 45±37 | 1.0 ± 0.1 | 5.7 ± 0.1** | 2.8 ± 1.4 | 1.2 ± 0.2 | 125±26 | 0 | 0 | 0 | 0 | 100.0% | 0% | 7.2±1.7
2 | CSCC[C@H](NC(=O)[C@H](CO)NC(=O)[C@@H](NC(=O)[C@H](CCC(=O)O)NC(=O)[C@H](CS)NC(=O)[C@H](CCC(N)=O)NC(=O)[C@H](CCCNC(=N)N)NC(=O)[C@H](CO)NC(=O)[C@H](Cc1c[nH]cn1)NC(=O)[C@H](Cc1ccc(O)cc1)NC(=O)[C@H](Cc1ccccc1)NC(=O)CNC(=O)[C@H](CC(N)=O)NC(=O)[C@@H](N)CCCCN)[C@@H](C)O)C(=O)N[C@@H](CC(=O)O)C(=O)NCC(=O)N[C@@H](CCC(=O)O)C(=O)N[C@@H](C)C(=O)NCC(=O)N[C@@H](CC(C)C)C(=O)N[C@@H](CS)C(=O)N[C@@H](Cc1c[nH]c2ccccc12)C(=O)O [IM1] (H-KNGFYHSRQCETSMDGEAGLCW-OH; N-terminus and C-terminus assumed) |  | 1.1 ± 0.1 | 3.0 ± 0.1** | 1.2 ± 0.3 | 1.1 ± 0.2 |  | 0 | 0 | 0 | 0 | 100.0% | 0% | 1.8±0.4
3 | N=C(N)NCCC[C@H](NC(=O)CNC(=O)[C@H](CCCCN)NC(=O)[C@H](CO)NC(=O)[C@@H]1CCCN1C(=O)[C@H](CCCNC(=N)N)NC(=O)[C@H](CS)NC(=O)[C@H](CCC(N)=O)NC(=O)[C@H](CCCCN)NC(=O)[C@H](CCCCN)NC(=O)[C@H](CCCCN)NC(=O)[C@H](Cc1ccc(O)cc1)NC(=O)[C@H](Cc1ccccc1)NC(=O)CNC(=O)[C@H](CCCCN)NC(=O)[C@@H](N)CCCCN)C(=O)N[C@@H](CCCCN)C(=O)N[C@@H](CCCNC(=N)N)C(=O)NCC(=O)N[C@@H](Cc1ccccc1)C(=O)N[C@@H](CS)C(=O)N[C@@H](Cc1c[nH]c2ccccc12)C(=O)O [IM3] (H-KKGFYKKKQCRPSKGRKRGFCW-OH; N-terminus and C-terminus assumed) | 200±29 | 28.7 ± 0.7** | 6.2 ± 0.2** | 24.7 ± 1.6** | 32.0 ± 0.7** | 63±27 | 0 | 1 | 0 | 3 | 2.3% | 97.7% | 100.0±16.8
4 | CSCC[C@H](NC(=O)[C@H](CCCCN)NC(=O)[C@H](CS)NC(=O)[C@H](CCC(N)=O)NC(=O)[C@H](CCCCN)NC(=O)[C@H](CC(C)C)NC(=O)[C@H](CC(N)=O)NC(=O)[C@H](Cc1ccc(O)cc1)NC(=O)[C@H](CC(C)C)NC(=O)CNC(=O)[C@H](Cc1c[nH]cn1)NC(=O)[C@@H](N)CCCCN)C(=O)N[C@@H](CO)C(=O)N[C@@H](CC(C)C)C(=O)N[C@@H](CC(N)=O)C(=O)NCC(=O)N[C@@H](CCC(N)=O)C(=O)N[C@@H](CCCNC(=N)N)C(=O)NCC(=O)N[C@@H](CCC(=O)O)C(=O)N[C@@H](CS)C(=O)N[C@@H](Cc1c[nH]c2ccccc12)C(=O)O [IM2] |  | 1.7 ± 0.2* | 3.6 ± 0.1** | 1.4 ± 0.3 | 1.1 ± 0.1 |  | 0 | 0 | 0 | 0 | 100.0% | 0% | 3.0±1.8
